Several values for one entry are separate records, joined by “and”; a condition that tells them apart may be missing. Equal entries are not always repeated.
Target: T1, MRGPRX4 + RAMP3 (Homo sapiens, UniProt Q96LA9)
T1 construct: expressed in transfected cells; host or cells: HEK293T
Test: IP1 accumulation, MRGPRX4 coexpressed with RAMP3
Assay type: cell-based
Design: key to IP1 Basal / response to agonist, X4:ramp3.I:0.25 / response to agonist, X4:ramp3.I:0.5 / response to agonist, X4:ramp3.I:1: % IP1; unstimulated mock = 0%, fully stimulated MRGPRX4 = 100%
Details: Figure 4c-f, agonist 100µM, MRGPRX4 = 100

T1 sequence (Q96LA9 whole entry): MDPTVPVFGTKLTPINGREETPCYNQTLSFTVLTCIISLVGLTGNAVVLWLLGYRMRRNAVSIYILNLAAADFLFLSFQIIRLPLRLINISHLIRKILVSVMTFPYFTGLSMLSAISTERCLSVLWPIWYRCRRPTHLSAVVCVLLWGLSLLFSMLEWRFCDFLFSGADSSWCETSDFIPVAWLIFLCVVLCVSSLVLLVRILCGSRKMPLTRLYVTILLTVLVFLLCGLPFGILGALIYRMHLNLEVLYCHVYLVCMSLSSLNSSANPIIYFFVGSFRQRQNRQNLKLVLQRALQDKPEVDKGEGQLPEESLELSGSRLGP

C[C@H](CCC(=O)NCCS(=O)(=O)O)[C@H]1CC[C@H]2[C@@H]3CC[C@@H]4C[C@H](O)CC[C@]4(C)[C@H]3C[C@H](O)[C@]12C [TDCA, Taurodeoxycholic acid] was tested, and the “response to agonist, X4:ramp3.I:0.25” value (X4:ramp3 1:0.25) was 75.8743 and 69.8198, the “response to agonist, X4:ramp3.I:0.5” value (X4:ramp3 1:0.5) was 71.1633 and 71.0507 and the “response to agonist, X4:ramp3.I:1” value (X4:ramp3 1:1) was 68.5255 and 51.1881.
